This is an account of results in patent US20260193264A1, “BENZOYPARAZINE PYRAZINES AND THEIR USES” (FOGHORN THERAPEUTICS INC., priority 2022, published 2026).

For experiment [1], the target named is T1, HiBiT-BRM fusion protein in stable HeLa cell line (Homo sapiens, UniProt P51531).
T1 construct: expressed in transfected cells
Briefly: HiBiT-BRM cell-based degradation assay (Nano-Glo HiBiT Lytic Detection, 24 h). Also on record: DC50: scale not given here. The conditions noted are these: HeLa HiBiT-BRM cells; for DC50: read-out: BRM HiBit Degradation IC50; for BRM HiBit Degradation Maximum (%): top dose 30 μM. In short, it runs like this:
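HeLa stably expressing HiBiT-BRM; 24 h compound exposure, 10-pt 3-fold dilution from 30 μM final, duplicates. Lytic LgBiT complementation, luminescence. % degradation vs DMSO (HC) and 2 μM known BRM/BRG1 degrader (LC).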
On the technique in general: With HiBiT, luminescence reflects the tagged protein that the partner subunit can reach.

Experiment [2] concerns the target T2, HiBit-BRG1 fusion protein in stable HeLa cell line expressing HiBit-BRG1 and LgBit (Homo sapiens, UniProt P51532).
T2 construct: expressed in transfected cells
As to the kind of experiment: HiBiT-BRG1 cell-based degradation assay (Nano-Glo HiBiT, 24 h). The conditions noted are these: HeLa HiBit-BRG1/LgBit cells; for DC50: read-out: BRMG1 HiBit Degradation IC50; for Dmax: top dose 30 μM, read-out: BRG1 HiBit Degradation Maximum (%). In short, it runs like this: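 Degradation calculated from NanoBiT luminescence relative to DMSO-treated cells (high) and cells given 2 μM known BRM/BRG1 degrader (low). HeLa cells stably expressing HiBiT-BRG1 plus LgBiT were exposed to compound for 24 h before lytic HiBiT detection.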

T2 sequence (P51532 whole entry, the tested form may be a part): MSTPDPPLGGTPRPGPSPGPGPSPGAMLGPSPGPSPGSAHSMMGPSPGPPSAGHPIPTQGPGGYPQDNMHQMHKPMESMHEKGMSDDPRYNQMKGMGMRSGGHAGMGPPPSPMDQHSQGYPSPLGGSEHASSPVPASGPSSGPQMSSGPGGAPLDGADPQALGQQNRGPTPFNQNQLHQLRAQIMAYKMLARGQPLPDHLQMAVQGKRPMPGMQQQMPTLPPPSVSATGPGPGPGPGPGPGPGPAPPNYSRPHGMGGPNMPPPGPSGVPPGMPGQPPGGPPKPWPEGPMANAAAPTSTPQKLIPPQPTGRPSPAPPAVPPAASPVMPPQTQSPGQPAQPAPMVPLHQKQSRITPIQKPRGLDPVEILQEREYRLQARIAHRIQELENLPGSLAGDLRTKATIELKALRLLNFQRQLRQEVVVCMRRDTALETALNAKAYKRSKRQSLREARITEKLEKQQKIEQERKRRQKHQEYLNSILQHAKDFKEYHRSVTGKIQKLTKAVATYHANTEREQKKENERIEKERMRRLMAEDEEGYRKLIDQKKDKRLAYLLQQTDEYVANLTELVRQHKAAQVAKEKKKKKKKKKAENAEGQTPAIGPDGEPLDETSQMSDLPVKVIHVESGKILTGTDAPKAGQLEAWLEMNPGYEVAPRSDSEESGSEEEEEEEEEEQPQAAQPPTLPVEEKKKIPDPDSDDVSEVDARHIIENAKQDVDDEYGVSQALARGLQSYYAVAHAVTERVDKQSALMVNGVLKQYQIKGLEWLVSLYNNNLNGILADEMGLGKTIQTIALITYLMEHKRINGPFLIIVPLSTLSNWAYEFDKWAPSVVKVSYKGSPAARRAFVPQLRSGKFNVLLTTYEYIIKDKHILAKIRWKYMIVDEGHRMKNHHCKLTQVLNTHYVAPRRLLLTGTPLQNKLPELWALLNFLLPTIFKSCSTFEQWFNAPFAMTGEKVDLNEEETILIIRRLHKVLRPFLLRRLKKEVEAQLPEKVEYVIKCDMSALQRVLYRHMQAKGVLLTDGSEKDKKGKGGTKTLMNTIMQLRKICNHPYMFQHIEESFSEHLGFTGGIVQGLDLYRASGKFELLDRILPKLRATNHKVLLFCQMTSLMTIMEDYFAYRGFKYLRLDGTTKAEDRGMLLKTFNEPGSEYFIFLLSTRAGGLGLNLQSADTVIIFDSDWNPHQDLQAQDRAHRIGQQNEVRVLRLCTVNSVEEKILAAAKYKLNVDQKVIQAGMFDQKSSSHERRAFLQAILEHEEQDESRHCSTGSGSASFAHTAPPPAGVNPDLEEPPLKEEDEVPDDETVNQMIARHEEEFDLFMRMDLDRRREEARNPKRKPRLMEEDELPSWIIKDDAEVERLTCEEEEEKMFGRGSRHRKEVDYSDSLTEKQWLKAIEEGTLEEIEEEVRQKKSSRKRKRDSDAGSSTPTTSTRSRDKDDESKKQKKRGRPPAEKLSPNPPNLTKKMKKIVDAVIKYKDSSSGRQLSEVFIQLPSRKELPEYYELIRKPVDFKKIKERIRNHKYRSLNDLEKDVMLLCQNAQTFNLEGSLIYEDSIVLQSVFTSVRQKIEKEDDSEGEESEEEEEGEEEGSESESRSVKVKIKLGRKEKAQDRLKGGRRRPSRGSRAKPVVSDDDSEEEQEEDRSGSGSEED
T1 sequence (P51531 whole entry, the tested form may be a part): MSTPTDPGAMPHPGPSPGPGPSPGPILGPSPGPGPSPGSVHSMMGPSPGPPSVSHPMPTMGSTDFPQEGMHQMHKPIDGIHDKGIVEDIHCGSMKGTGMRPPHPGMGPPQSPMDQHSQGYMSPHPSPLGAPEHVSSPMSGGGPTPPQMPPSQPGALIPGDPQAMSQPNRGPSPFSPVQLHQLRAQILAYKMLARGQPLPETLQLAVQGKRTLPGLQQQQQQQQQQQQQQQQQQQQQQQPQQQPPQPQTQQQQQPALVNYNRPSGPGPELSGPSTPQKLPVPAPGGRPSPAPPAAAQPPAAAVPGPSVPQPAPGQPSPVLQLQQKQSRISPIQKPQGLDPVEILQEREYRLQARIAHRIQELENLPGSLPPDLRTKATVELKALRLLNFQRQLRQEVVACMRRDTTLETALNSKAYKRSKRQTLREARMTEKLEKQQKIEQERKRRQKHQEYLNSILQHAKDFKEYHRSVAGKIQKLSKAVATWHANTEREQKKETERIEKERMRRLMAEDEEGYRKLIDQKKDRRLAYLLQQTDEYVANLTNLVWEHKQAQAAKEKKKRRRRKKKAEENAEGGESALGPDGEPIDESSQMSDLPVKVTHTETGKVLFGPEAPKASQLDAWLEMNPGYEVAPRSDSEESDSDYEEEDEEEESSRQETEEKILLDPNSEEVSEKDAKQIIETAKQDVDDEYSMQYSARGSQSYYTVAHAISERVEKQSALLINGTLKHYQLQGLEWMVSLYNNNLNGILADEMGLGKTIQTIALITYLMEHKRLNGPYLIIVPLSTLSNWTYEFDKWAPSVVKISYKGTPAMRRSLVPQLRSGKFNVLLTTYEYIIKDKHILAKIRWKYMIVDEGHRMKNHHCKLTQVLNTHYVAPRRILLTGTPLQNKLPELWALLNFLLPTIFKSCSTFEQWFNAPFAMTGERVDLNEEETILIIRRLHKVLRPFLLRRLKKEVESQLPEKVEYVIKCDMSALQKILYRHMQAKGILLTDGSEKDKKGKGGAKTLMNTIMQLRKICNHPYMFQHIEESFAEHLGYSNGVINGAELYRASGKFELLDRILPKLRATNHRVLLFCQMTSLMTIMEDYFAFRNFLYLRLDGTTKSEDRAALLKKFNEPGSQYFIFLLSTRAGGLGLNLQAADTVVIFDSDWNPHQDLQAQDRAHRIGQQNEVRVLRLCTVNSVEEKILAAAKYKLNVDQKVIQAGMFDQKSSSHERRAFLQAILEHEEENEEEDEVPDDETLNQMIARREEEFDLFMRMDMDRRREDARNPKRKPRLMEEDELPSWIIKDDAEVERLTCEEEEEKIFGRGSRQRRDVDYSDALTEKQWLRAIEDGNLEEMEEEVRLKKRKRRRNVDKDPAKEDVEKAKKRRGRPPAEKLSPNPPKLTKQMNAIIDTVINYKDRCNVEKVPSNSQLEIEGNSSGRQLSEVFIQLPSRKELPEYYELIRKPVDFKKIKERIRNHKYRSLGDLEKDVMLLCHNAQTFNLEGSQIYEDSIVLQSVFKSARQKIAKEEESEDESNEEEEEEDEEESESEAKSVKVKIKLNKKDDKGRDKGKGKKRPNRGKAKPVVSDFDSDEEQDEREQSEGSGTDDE

Turning to `Cc1nc(N2CCC(c3ccc4cc(-c5ccccc5O)nnc4c3)CC2)ccc1-c1cc([C@H](C(=O)N2C[C@H](O)C[C@H]2C(=O)N[C@@H](C)c2ccc(-c3scnc3C)cc2)C(C)C)on1` [Compound 80, (2S,4R)-4-hydroxy-1-((R)-2-(3-(6-(4-(3-(2-hydroxyphenyl)cinnolin-7-yl)piperidin-1-yl)-2-methylpyridin-3-yl)isoxazol-5-yl)-3-methylbutanoyl)-N-((S)-1-(4-(4-methylthiazol-5-yl)phenyl)ethyl)pyrrolidine-2-carboxamide], in experiment [1], the DC50 was below 10 nM and the “BRM HiBit Degradation Maximum (%)” value was “A (“A” indicates maximum degradation ≥75%)”. Besides, in experiment [2], the DC50 was above 10 nM and the Dmax was above 75%.

Consider `Cc1cc(N2CCC(c3ccc4cc(-c5ccccc5O)nnc4c3)CC2)ncc1-c1cc([C@H](C(=O)N2C[C@H](O)C[C@H]2C(=O)N[C@@H](C)c2ccc(-c3scnc3C)cc2)C(C)C)on1` [Compound 81, (2S,4R)-4-hydroxy-1-((R)-2-(3-(6-(4-(3-(2-hydroxyphenyl)cinnolin-7-yl)piperidin-1-yl)-4-methylpyridin-3-yl)isoxazol-5-yl)-3-methylbutanoyl)-N-((S)-1-(4-(4-methylthiazol-5-yl)phenyl)ethyl)pyrrolidine-2-carboxamide], for which, in experiment [1], the DC50 is below 10 nM and the “BRM HiBit Degradation Maximum (%)” value is listed as “A (“A” indicates maximum degradation ≥75%)”. In addition, the Dmax in experiment [2] is below 50%.

Take `Cc1ncsc1-c1ccc([C@H](C)NC(=O)[C@@H]2C[C@@H](O)CN2C(=O)[C@@H](c2cc(N3CCC4(CC3)CC(c3ccc5cc(-c6cc(F)cc(F)c6O)nnc5c3)C4)no2)C(C)C)cc1` [Compound 82, (2S,4R)-1-((R)-2-(3-(2-(3-(3,5-difluoro-2-hydroxyphenyl)cinnolin-7-yl)-7-azaspiro[3.5]nonan-7-yl)isoxazol-5-yl)-3-methylbutanoyl)-4-hydroxy-N-((S)-1-(4-(4-methylthiazol-5-yl)phenyl)ethyl)pyrrolidine-2-carboxamide]: in experiment [1], the DC50 was below 10 nM and the “BRM HiBit Degradation Maximum (%)” value is reported as “A (“A” indicates maximum degradation ≥75%)”. In addition, the Dmax in experiment [2] is below 50%.

Turning to `Cc1ncsc1-c1ccc([C@H](C)NC(=O)[C@@H]2C[C@@H](O)CN2C(=O)[C@@H](c2cc(N3CCC4(CCN(c5ccc6cc(-c7ccccc7O)nnc6c5)C4)CC3)no2)C(C)C)cc1` [Compound 83, (2S,4R)-4-hydroxy-1-((R)-2-(3-(2-(3-(2-hydroxyphenyl)cinnolin-7-yl)-2,8-diazaspiro [4.5]decan-8-yl)isoxazol-5-yl)-3-methylbutanoyl)-N-((S)-1-(4-(4-methylthiazol-5-yl)phenyl)ethyl)pyrrolidine-2-carboxamide], in experiment [1], the DC50 is below 10 nM and the “BRM HiBit Degradation Maximum (%)” value was “A (“A” indicates maximum degradation ≥75%)”. Also, in experiment [2], the DC50 was above 10 nM and the Dmax was above 75%.

`Cc1ncsc1-c1ccc([C@H](C)NC(=O)[C@@H]2C[C@@H](O)CN2C(=O)[C@@H](c2cc(N3CC4(CC(Oc5ccc6cc(-c7ccccc7O)nnc6c5)C4)C3)no2)C(C)C)cc1` [Compound 84, (2S,4R)-4-hydroxy-1-((R)-2-(3-(6-((3-(2-hydroxyphenyl)cinnolin-7-yl)oxy)-2-azaspiro[3.3]heptan-2-yl)isoxazol-5-yl)-3-methylbutanoyl)-N-((S)-1-(4-(4-methylthiazol-5-yl)phenyl)ethyl)pyrrolidine-2-carboxamide]: in experiment [1], the DC50 is below 10 nM and the “BRM HiBit Degradation Maximum (%)” value is “A (“A” indicates maximum degradation ≥75%)”. In addition, in experiment [2], the DC50 is above 10 nM and the Dmax was above 50%.

`CC(C)[C@@H](C(=O)N1C[C@H](O)C[C@H]1C(=O)N[C@@H](C)c1ccccc1)c1cc(N2CC3(CN(c4ccc5cc(-c6ccccc6O)nnc5c4)C3)C2)no1` [Compound 85, (2S,4R)-4-hydroxy-1-((R)-2-(3-(6-(3-(2-hydroxyphenyl)cinnolin-7-yl)-2,6-diazaspiro[3.3]heptan-2-yl)isoxazol-5-yl)-3-methylbutanoyl)-N-((S)-1-phenylethyl)pyrrolidine-2-carboxamide]: in experiment [1], the DC50 was below 10 nM and the “BRM HiBit Degradation Maximum (%)” value is “A (“A” indicates maximum degradation ≥75%)”. For the same compound, the Dmax in experiment [2] was below 50%.

`Cc1ncsc1-c1ccc([C@H](C)NC(=O)[C@@H]2C[C@@H](O)CN2C(=O)[C@@H](c2cc(N3C[C@@H]4[C@H](C3)[C@H]4c3ccc4nnc(-c5ccccc5O)cc4c3)no2)C(C)C)cc1` [Compound 86, (2S,4R)-4-hydroxy-1-((R)-2-(3-((1R,5S,6S)-6-(3-(2-hydroxyphenyl)cinnolin-6-yl)-3-azabicyclo[3.1.0]hexan-3-yl)isoxazol-5-yl)-3-methylbutanoyl)-N-((S)-1-(4-(4-methylthiazol-5-yl)phenyl)ethyl)pyrrolidine-2-carboxamide]: in experiment [1], the DC50 was below 10 nM and the “BRM HiBit Degradation Maximum (%)” value was “A (“A” indicates maximum degradation ≥75%)”. In addition, in experiment [2], the Dmax was below 50%.

In the case of `Cc1ncsc1-c1ccc([C@H](C)NC(=O)[C@@H]2C[C@@H](O)CN2C(=O)[C@@H](c2cc(N3CC4(CCC(c5ccc6cc(-c7ccccc7O)nnc6c5)CC4)C3)no2)C(C)C)cc1` [Compound 87, (2S,4R)-4-hydroxy-1-((R)-2-(3-(7-(3-(2-hydroxyphenyl)cinnolin-7-yl)-2-azaspiro[3.5]nonan-2-yl)isoxazol-5-yl)-3-methylbutanoyl)-N-((S)-1-(4-(4-methylthiazol-5-yl)phenyl)ethyl)pyrrolidine-2-carboxamide], in experiment [1], the DC50 is below 10 nM and the “BRM HiBit Degradation Maximum (%)” value is given as “A (“A” indicates maximum degradation ≥75%)”. Further, in experiment [2], the DC50 was below 10 nM and the Dmax is above 75%.

As to `Cc1cc(-c2cc([C@H](C(=O)N3C[C@H](O)C[C@H]3C(=O)N[C@@H](C)c3ccc(-c4scnc4C)cc3)C(C)C)on2)cnc1N1CCC(c2ccc3cc(-c4ccccc4O)nnc3c2)CC1` [Compound 88, (2S,4R)-4-hydroxy-1-((R)-2-(3-(6-(4-(3-(2-hydroxyphenyl)cinnolin-7-yl)piperidin-1-yl)-5-methylpyridin-3-yl)isoxazol-5-yl)-3-methylbutanoyl)-N-((S)-1-(4-(4-methylthiazol-5-yl)phenyl)ethyl)pyrrolidine-2-carboxamide], in experiment [1], the DC50 was below 10 nM and the “BRM HiBit Degradation Maximum (%)” value is “A (“A” indicates maximum degradation ≥75%)”. Moreover, in experiment [2], the Dmax was below 50%.

With `CC(C)[C@@H](C(=O)N1C[C@H](O)C[C@H]1C(=O)N[C@@H](C)c1ccc(F)cc1)c1cc(N2CC3(CN(c4ccc5cc(-c6ccccc6O)nnc5c4)C3)C2)no1` [Compound 89, (2S,4R)-N-((S)-1-(4-fluorophenyl)ethyl)-4-hydroxy-1-((R)-2-(3-(6-(3-(2-hydroxyphenyl)cinnolin-7-yl)-2,6-diazaspiro[3.3]heptan-2-yl)isoxazol-5-yl)-3-methylbutanoyl)pyrrolidine-2-carboxamide], in experiment [1], the DC50 is below 10 nM and the “BRM HiBit Degradation Maximum (%)” value is given as “A (“A” indicates maximum degradation ≥75%)”. Besides, the Dmax in experiment [2] was below 50%.

Regarding `Cc1ncsc1-c1ccc([C@H](C)NC(=O)[C@@H]2C[C@@H](O)CN2C(=O)[C@@H](c2cc(N3CCC[C@H](c4ccc5cc(-c6ccccc6O)nnc5c4)C3)no2)C(C)C)cc1` [Compound 90, (2S,4R)-4-hydroxy-1-((R)-2-(3-((R)-3-(3-(2-hydroxyphenyl)cinnolin-7-yl)piperidin-1-yl)isoxazol-5-yl)-3-methylbutanoyl)-N-((S)-1-(4-(4-methylthiazol-5-yl)phenyl)ethyl)pyrrolidine-2-carboxamide], in experiment [1], the DC50 was below 10 nM and the “BRM HiBit Degradation Maximum (%)” value is “A (“A” indicates maximum degradation ≥75%)”. Further, in experiment [2], the DC50 was below 10 nM and the Dmax is above 75%.

As for `Cc1ncsc1-c1ccc([C@H](C)NC(=O)[C@@H]2C[C@@H](O)CN2C(=O)[C@@H](c2cc(N3CCC[C@@H](c4ccc5cc(-c6ccccc6O)nnc5c4)C3)no2)C(C)C)cc1` [Compound 91, (2S,4R)-4-hydroxy-1-((R)-2-(3-((S)-3-(3-(2-hydroxyphenyl)cinnolin-7-yl)piperidin-1-yl)isoxazol-5-yl)-3-methylbutanoyl)-N-((S)-1-(4-(4-methylthiazol-5-yl)phenyl)ethyl)pyrrolidine-2-carboxamide], in experiment [1], the DC50 is below 10 nM and the “BRM HiBit Degradation Maximum (%)” value is on record as “A (“A” indicates maximum degradation ≥75%)”. In experiment [2], the DC50 is below 10 nM and the Dmax was above 75%.

Take `Cc1ncsc1-c1ccc([C@H](C)NC(=O)[C@@H]2C[C@@H](O)CN2C(=O)[C@@H](c2cc(N3CCC4(CC[C@H](c5ccc6cc(-c7ccccc7O)nnc6c5)C4)CC3)no2)C(C)C)cc1` [Compound 92, (2S,4R)-4-hydroxy-1-((R)-2-(3-((S)-2-(3-(2-hydroxyphenyl)cinnolin-7-yl)-8-azaspiro[4.5]decan-8-yl)isoxazol-5-yl)-3-methylbutanoyl)-N-((S)-1-(4-(4-methylthiazol-5-yl)phenyl)ethyl)pyrrolidine-2-carboxamide]: in experiment [1], the DC50 was below 10 nM and the “BRM HiBit Degradation Maximum (%)” value is “A (“A” indicates maximum degradation ≥75%)”. In experiment [2], the DC50 was above 10 nM and the Dmax is above 75%.
